Assay results taken from publication PMC6394301, “Evaluation of the anticancer potential of a sulphonamide carbonic anhydrase IX inhibitor on cervical cancer cells” (Journal of Enzyme Inhibition and Medicinal Chemistry, 2019).
pIC50, pKi: −log10 of the molar value.

Tests used:
HeLa cells [1] = test: WST-1 cell viability assay, HeLa; assay type: cell-based, human; details: for pIC50: WST-1
Procedure: (§1) Since it is an unstable amino acid, the medium was supplemented with L-glutamine immediately prior.
(§2) WST-1 Cell Proliferation test, a product of the Roche Company is a colourimetric assay based on the cleavage of a tetrazolium salt by mitochondrial dehydrogenases to generate formazan in living cells. This assay is simple because only 10 μL of WST-1 reactant is added to 100 μL media on a 96-well plate. The cells were counted with a haemocytometer immediately before the subsequent procedures. The HeLa and PNT1A cells were used for seeding, with 5 × 10^3 cells per well, and then incubated overnight in a humidified atmosphere (37 °C with 5% CO2).
(§3) The next day, WST-1 is added to cells treated with S-1 as a cytotoxic reagent and the incubation is continued for an additional 1−2 h in a humidified atmosphere. One of the advantages of the WST-1 test is that colour change (yellow) can be seen with the naked eye.
(§4) After incubation, the plate was shaken well for 1 min. The absorbance is then measured at 450 nm versus a 650 nm reference by using a plate reader (M5, Spectra MAX) and SoftMax Pro software from Molecular Devices to compare experimental samples to controls.
(§5) IC50 is a measure used to estimate the potency of a material that inhibits a specific biological or biochemical function.
We determined the cell viability of CC cell line HeLa grown in 96-well plates for 24, 48, 72 h and treated with increasing concentrations (0, 2.5, 5, 10, 25, 50, 100, 200 μM) of S-1. Cell viability was evaluated with colourimetric WST-1 assay as described previously tested on the splitting of the tetrazolium salt by mitochondria dehydrogenases in viable cell. […] The number of viable cells was then quantified using trypan blue exclusion.

HeLa cells [2] = test: Intracellular total antioxidant status (TAS); assay type: cell-based, human; details: positive control group
Procedure: The cellular TAS amount was determined using a new colourimetric assay method, which was improved by Erel[25]. This process is withstanding on the bleaching of the ostensible colour of the 2,2′-azino-bis [3-ethylbenzothiazoline-6-sulfonic acid] (ABTS) radical cation via the action of antioxidants. Upon the addition of a sample, the oxidative reactions initiated by the hydroxyl radicals present in the reaction mixture are inhibited by the antioxidant components of the lysate, preventing colour change and thus providing an effective measure of the TAS value of the lysate. The precision of this test has high accuracy (less than 3% error rate). Analysis results were expressed as mmol Trolox equiv/mg protein.

PNT1-A cells = test: WST-1 cell viability assay, PNT1-A; assay type: cell-based, human; details: PNT1-A 24 h
Procedure: as §1, §2, §3, §4, §5

HeLa cells [3] = test: Intracellular total oxidant status (TOS); assay type: cell-based, human
Procedure: The amount of cellular TOS was measured using an automated colourimetric reading process advanced by Erel[26]. In this method, the oxidation reaction is increased by the presence of excess glycerol in the reaction medium. Ferric ion forms a coloured complex with chromogen orange in an acidic environment. The spectrophotometrically measurable colour intensity is concerned to the whole level of oxidant molecules existent in the specimen. The assay is calibrated with H2O2, and the results are expressed in terms of micromolar H2O2 per mg protein (μmol H2O2 Equiv./mg protein).

HeLa cells [4] = test: Oxidative stress index (OSI); assay type: cell-based, human
Procedure: Percentage of TOS to TAS amount is taken into account in order to determine the oxidative stress index (OSI)[27]. Oxidative stress index was determined according to the equation outlined below:
OSI = (TOS (μ mol H2O2 equiv/g))/(TAS (μ mol Trolox equiv/g)) × 10

CA-IX = details: read-out: Ki value of CA-IX; cited from earlier work
[5] = Stability of the imine bond in the assay medium; assay type: physicochemical

pIC50 (HeLa cells [1]; Homo sapiens, HeLa 24 h)	pIC50 (HeLa cells [1]; Homo sapiens, HeLa 48 h)	pIC50 (HeLa cells [1]; Homo sapiens, HeLa 72 h)	stability in the assay medium [5]	SMILES	pIC50 (HeLa cells [1]; HeLa 24 h)	pIC50 (HeLa cells [1]; HeLa 48 h)	pIC50 (HeLa cells [1]; HeLa 72 h)	TAS value (HeLa cells [2])	pIC50 (PNT1-A cells)	TOS level (HeLa cells [3]; positive control group)	OSI value (HeLa cells [4]; positive control, from TOS and TAS)	viability at 200 µM (HeLa cells [1]; Homo sapiens, HeLa, 200 μM, 48 h incubated, read-out: greatest viability loss)	pIC50 (PNT1-A cells; Homo sapiens, PNT1A)	TOS level compared with Cisplatin (HeLa cells [3]; doses 50, 100 µM)	pKi (CA-IX)	OSI value compared with Cisplatin (HeLa cells [4]; 100 μM concentration)
–	–	–	–	N.N.[Cl][Pt][Cl] [Cisplatin, cisplatin, reference compound]	4.54	5.12	5.21	0.67 mmol Trolox equiv/mg protein	4.87	11.49 μmol H2O2 Equiv./mg protein	1.72	–	–	–	–	–
4.60	4.37	4.08	stable	NS(=O)(=O)c1ccc(N=Cc2cc(Cl)cc(Cl)c2O)cc1 [S-1, 4-[(3,5-Dichloro-2-hydroxybenzylidene)amino]benzenesulfonamide]	–	–	–	–	–	–	–	5.5%	3.70	nearly same effect as Cisplatin	7.45	too close to the level of Cisplatin
